The results in this text go back to patent publication US7635706B2, “5HT4-antagonistic 4-(aminomethyl)-piperidine benzamides” (Janssen Pharmaceutica NV, priority 2003, dated 2009).

Each structure is given as a SMILES string.

T1 sequence (Q13639 whole entry): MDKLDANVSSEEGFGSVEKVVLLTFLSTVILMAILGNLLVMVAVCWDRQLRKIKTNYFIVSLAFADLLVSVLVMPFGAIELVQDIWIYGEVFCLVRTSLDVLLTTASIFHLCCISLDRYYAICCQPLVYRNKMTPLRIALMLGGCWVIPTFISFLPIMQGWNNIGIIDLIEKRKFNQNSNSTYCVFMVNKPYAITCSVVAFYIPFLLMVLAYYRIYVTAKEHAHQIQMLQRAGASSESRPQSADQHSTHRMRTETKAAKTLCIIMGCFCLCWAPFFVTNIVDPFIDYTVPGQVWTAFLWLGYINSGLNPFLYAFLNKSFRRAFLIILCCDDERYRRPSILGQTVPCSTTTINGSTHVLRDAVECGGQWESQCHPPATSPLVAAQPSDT

This experiment addresses T1, h5-HT4b (Homo sapiens, UniProt Q13639).
T1 construct: expressed in transfected cells; host or cells: HEK 293 (clone 9), membrane preparation
In words: 5HT4 antagonism: [3H]GR113808 binding to membranes of h5-HT4b-HEK 293 clone 9 cells. The note with it: [3H]GR113808 0.1 nM, h5-HT4b-HEK 293 membranes, 30 min at 25° C. How it is done:
h5-HT4b-HEK 293 clone 9 cells were cultured in 150 mm Petri dishes and washed twice with cold PBS. The cells were then scraped from the plates and suspended in 50 mM Tris-HCl buffer, pH 7.4 and harvested by centrifugation at 23,500 rpm for 10 minutes. The pellet was resuspended in 5 mM Tris-HCl, pH 7.4 and homogenized with an Ultra Turrax homogenizer. The membranes were collected by centrifugation at 30,000 rpm for 20 min, resuspended in 50 mM Tris-HCl pH 7.4 and stored at −80° C. For the experiment, assay mixtures (0.5 ml) contained 50 μl of the tritiated ligand (5-HT4 antagonist [^3H]GR113808 0.1 nM) and 0.4 ml membrane preparation (15 μg protein/ml). 50 μl of 10% DMSO was added for total binding. 50 μl of 1 μM of (+)-trans-(1-butyl-3-hydroxy4-piperidinyl)methyl 8-amino-7-chloro-2,3-dihydro-1,4-benzodioxin-5-carboxylate (a proprietary 5HT4 agonist of Janssen Pharmaceutica) was added for determination of non-specific binding.
The [^3H]GR113808 assay buffer was 50 mM HEPES-NaOH, pH 7.4. The mixtures were incubated for 30 min at 25° C. The incubation was terminated by filtration over a Unifilter 96 GF/B presoaked in 0.1% polyethylenimine, followed by six washing steps with 50 mM HEPES-NaOH, pH 7.4.
Usually IC50 stands for the concentration that gives 50% inhibition. A high value points to lower potency. The molecule `COc1c(Cl)cc(C(=O)NC[C@@H]2CCN(CCn3ccn(C(C)C)c3=O)C[C@H]2OC)c2c1OCCO2` [compound 70] showed a half-inhibitory concentration (IC50) of 263 nM.
In the case of `COc1c(Cl)cc(C(=O)NC[C@@H]2CCN(CCC3OCCO3)C[C@H]2O)c2c1OCCO2` [compound 31], the 50% inhibitory concentration (IC50) was 7.08 nM.
The molecule `Cc1ccc(C(=O)NC[C@@H]2CCN(CCCNS(C)(=O)=O)C[C@H]2O)c2c1OCCCO2` [compound 96] showed an IC50 of 0.977 nM.
The result for `Cc1ccc(C(=O)NC[C@@H]2CCNC[C@H]2O)c2c1OCCCO2` [compound 104] reads 28.2 nM; that for `CNCCCCN1CC[C@@H](CNC(=O)c2ccc(C)c3c2OCCCO3)[C@H](O)C1` [compound 4], 6.92 nM; that for `CCCCN1CC[C@@H](CNC(=O)c2cc(Cl)c(OC)c3c2OCCCO3)[C@H](O)C1` [compound 17], 3.8 nM.
`CNCCCN1CC[C@@H](CNC(=O)c2cc(Cl)c(OC)c3c2OCCO3)[C@H](O)C1` [compound 44] showed an IC50 of 28.8 nM.
The value for `CNCCCCN1CC[C@@H](CNC(=O)c2cc(Cl)c(Br)c3c2OCCCO3)[C@H](O)C1` [compound 64] was 1.55 nM; that for `CNCCCN1CC[C@@H](CNC(=O)c2cc(Cl)c(OC)c3c2OCCO3)[C@H](OC)C1` [compound 78] was 174 nM; that for `CCCCN1CC[C@@H](CNC(=O)c2cc(Cl)c(OC)c3c2OCCCO3)[C@H](OC)C1` [compound 71] was 10.7 nM.
Turning to `CO[C@@H]1CN(CCCO)CC[C@H]1CNC(=O)c1cc(Cl)c(Br)c2c1OCCCO2` [compound 45], the concentration for half-maximal inhibition (IC50) was 7.41 nM.
The value for `CNCCCCN1CC[C@@H](CNC(=O)c2cc(Cl)c(Cl)c3c2OCCCO3)[C@H](O)C1` [compound 90] was 2.04 nM; that for `COc1c(Cl)cc(C(=O)NC[C@@H]2CCN(CC3CCCO3)C[C@H]2O)c2c1OCCCO2` (stereo partly drawn) [compound 33] was 1.2 nM; that for `COCCCN1CC[C@@H](CNC(=O)c2cc(Cl)c(Cl)c3c2OCCCO3)[C@H](OC)C1` [compound 59] was 3.72 nM.
The value for `CCCCN1CC[C@@H](CNC(=O)c2ccc(F)c3c2OCCCO3)[C@H](O)C1` [compound 131] was 1 nM.
Turning to `CNCCCCN1CC[C@@H](CNC(=O)c2ccc(OC)c3c2OCCO3)[C@H](O)C1` [compound 118], the half-maximal inhibitory concentration (IC50) was 6.76 nM.
The result for `O=C(NC[C@@H]1CCN(CCC2OCCO2)C[C@H]1O)c1cc(Cl)c(Br)c2c1OCCCO2` [compound 27] reads 4.9 nM.
`CO[C@@H]1CN(CCCC#N)CC[C@H]1CNC(=O)c1cc(Cl)c(Br)c2c1OCCCO2` [compound 28] gave an IC50 of 6.31 nM.
The result for `CNCCCN1CC[C@@H](CNC(=O)c2cc(Cl)c(Cl)c3c2OCCCO3)[C@H](O)C1` [compound 85] reads 2.69 nM.
The result for `CNCCCN1CC[C@@H](CNC(=O)c2cc(Cl)c(Br)c3c2OCCCO3)[C@H](O)C1` [compound 80] reads 6.31 nM; that for `COc1ccc(C(=O)NC[C@@H]2CCN(CCCO)C[C@H]2O)c2c1OCCO2` [compound 116], 5.25 nM; that for `COc1ccc(C(=O)NC[C@@H]2CCN(CCCO)C[C@H]2O)c2c1OCCCO2` [compound 113], 3.24 nM.
The molecule `CCOc1ccc(C(=O)NC[C@@H]2CCN(CCCC(N)=O)C[C@H]2O)c2c1OCCCO2` [compound 146] showed an IC50 of 5.89 nM.
Regarding `COc1ccc(C(=O)NC[C@@H]2CCN(CCCNS(C)(=O)=O)C[C@H]2OC)c2c1OCCCO2` [compound 134], the IC50 is 0.912 nM.
The result for `N#CCCCN1CC[C@@H](CNC(=O)c2cc(Cl)c(Br)c3c2OCCCO3)[C@H](O)C1` [compound 10] reads 3.02 nM.
With `O=C(NC[C@@H]1CCN(CCOCCO)C[C@H]1O)c1cc(Cl)c(Cl)c2c1OCCCO2` [compound 21], the IC50 was 3.89 nM.
Turning to `CNCCN1CC[C@@H](CNC(=O)c2cc(Cl)c(Cl)c3c2OCCCO3)[C@H](OC)C1` [compound 84], the IC50 is 5.25 nM.
On to `CO[C@@H]1CNCC[C@H]1CNC(=O)c1cc(Cl)c(Br)c2c1OCCCO2` [compound 35], for which the IC50 was 23.4 nM.
The value for `O=C(NC[C@@H]1CCN(CC2CCCO2)C[C@H]1O)c1cc(Cl)c(Br)c2c1OCCCO2` (stereo partly drawn) [compound 39] was 3.89 nM.
For `CCCCN1CC[C@@H](CNC(=O)c2ccc(OC)c3c2OCCCO3)[C@H](OC)C1` [compound 123], the IC50 is 11 nM.
In turn, `CNCCCCN1CC[C@@H](CNC(=O)c2cc(Cl)c(OC)c3c2OCCCO3)[C@H](OC)C1` [compound 61] gave an IC50 of 85.1 nM.
The result for `COCCCN1CC[C@@H](CNC(=O)c2ccc(OC)c3c2OCCCO3)[C@H](OC)C1` [compound 124] reads 24.5 nM; that for `CCCCN1CC[C@H](CNC(=O)c2ccc(OC)c3c2OCCCO3)[C@H](O)C1` [compound 141], 214 nM.
The value for `CO[C@@H]1CN(CCCO)CC[C@H]1CNC(=O)c1cc(Cl)c(Cl)c2c1OCCCO2` [compound 75] was 3.09 nM.
The value for `COCCCN1CC[C@@H](CNC(=O)c2cc(Cl)c(OC)c3c2OCCO3)[C@H](OC)C1` [compound 76] was 21.9 nM.
Consider `CNCCCCN1CC[C@@H](CNC(=O)c2cc(Cl)c(Cl)c3c2OCCCO3)[C@H](OC)C1` [compound 86], for which the IC50 is 0.912 nM.
As to `COc1ccc(C(=O)NC[C@@H]2CCN(CCCC(N)=O)C[C@H]2O)c2c1OCCCO2` [compound 128], the IC50 was 7.24 nM.
The value for `CCCCN1CC[C@@H](CNC(=O)c2cc(Cl)c(Br)c3c2OCCCO3)[C@H](O)C1` [compound 22] was 1.41 nM; that for `COc1c(Cl)cc(C(=O)NC[C@@H]2CCN(CCC3OCCO3)C[C@H]2OC)c2c1OCCO2` [compound 87] was 30.9 nM.
The result for `COc1ccc(C(=O)NC[C@@H]2CCN(CCCCC(N)=O)C[C@H]2O)c2c1OCCO2` [compound 125] reads 3.24 nM; that for `COc1c(Cl)cc(C(=O)NC[C@@H]2CCN(CCOCCO)C[C@H]2O)c2c1OCCCO2` [compound 23], 17.4 nM; that for `COCCCN1CC[C@@H](CNC(=O)c2ccc(F)c3c2OCCCO3)[C@H](O)C1` [compound 132], 2.24 nM.
`COCCCN1CC[C@@H](CNC(=O)c2cc(Cl)c(OC)c3c2OCCCO3)[C@H](O)C1` [compound 14]: the IC50 was 2.63 nM.
The result for `Cc1ccc(C(=O)NC[C@@H]2CCN(CCOc3ccc(S(N)(=O)=O)cc3)C[C@H]2O)c2c1OCCCO2` [compound 108] reads 1.78 nM.
In turn, `CCCCN1CC[C@@H](CNC(=O)c2ccc(OC)c3c2OCCO3)[C@H](O)C1` [compound 114] gave an IC50 of 2.63 nM.
The value for `COCCCN1CC[C@@H](CNC(=O)c2ccc(OC)c3c2OCCCO3)[C@H](O)C1` [compound 110] was 3.09 nM; that for `COCCCCN1CC[C@@H](CNC(=O)c2ccc(OC)c3c2OCCCO3)[C@H](O)C1` [compound 129] was 3.39 nM; that for `CO[C@@H]1CN(CCn2ccn(C(C)C)c2=O)CC[C@H]1CNC(=O)c1cc(Cl)c(Cl)c2c1OCCCO2` [compound 82] was 8.32 nM.
The result for `COCCCN1CC[C@@H](CNC(=O)c2cc(Cl)c(Br)c3c2OCCCO3)[C@H](OC)C1` [compound 54] reads 4.9 nM; that for `COc1ccc(C(=O)NC[C@@H]2CCN(CCOCCO)C[C@H]2O)c2c1OCCCO2` [compound 127], 13.8 nM.
The value for `COc1c(Cl)cc(C(=O)NC[C@@H]2CCN(CC3OCCO3)C[C@H]2O)c2c1OCCCO2` [compound 18] was 24 nM.
